From patent publication US5861403A, “Purinylalkyl benzamide derivatives” (G. D. Searle & Co., priority 1996, dated 1999)

Target: T1, Human Platelet Receptor (Homo sapiens, UniProt P25105)
T1 construct: tissue Lifesource, Inc. (Glenview, Ill.); host or cells: human packed platelets, washed, broken by freeze-thaw; membrane pellet
Assay: Human Platelet Receptor Binding (inhibition of specific binding of [^3 H]PAF to human platelet membrane preparation)
Conditions: 0.5 h, 0.75 nM [^3 H]PAF, human platelet membranes, read-out: Human Platelet Receptor, % @ 10 μM (percent displacement)
Experimental: Assay B: Human Platelet Receptor Binding
Compounds of the invention were evaluated for their ability to inhibit specific binding of [^3 H]PAF to human platelet membrane preparation. Human packed platelets were obtained from Lifesource, Inc. (Glenview, Ill.) and washed 3 times with 10 mM Trizma pH 7.0, 2 mM EDTA (dipotassium salt), 150 mM KCl and then once with 10 mM Trizma 7.4, 20 mM CaCl2. The platelets were broken by freezing in a dry ice-ethanol bath, followed by thawing in 24° C. water baths. The preparation was centrifuged (40,000 x g, 20 minutes, […]) and the pellet suspended in 10 mM Trizma 7.4, 20 mM CaCl2, 5 mg/ml human albumin. Protein concentration in the platelet membrane preparation was determined by the Lowry method [O. H. Lowry et al., J. Biol. Chem., 193, 265-275 (1951)]. Aliquots of the membrane preparation were stored at -70° C. Each preparation was characterized for PAF receptor number and dissociation constant (Kd). In binding assays 5 μl of test compound, solubilized in DMSO, was added to polypropylene tubes along with 0.75 nM [^3 H]PAF and 200 mcl [[…]] of membranes and 95 μl 10 mM Trizma 7.4, 20 mM CaCl2, 5 mg/ml human albumin. Tubes were incubated for 30 minutes at 24° C. The incubation was terminated by adding 4 ml of ice-cold 10 mM Trizma pH 7.4, 20 mM CaCl2 and 20 mg/ml BSA prior to vacuum filtration using Whatman GF/C filters. Filters were prepared and counted in a scintillation counter. All DPM values (disintergrations per minute) were-corrected for background and isotope decay. Triplicate determinations for single doses were averaged. […] The IC50 values for the compounds of the invention were determined by the Allfit program using percent displacement data. (Allfit is a `basic` computer program for simultaneous curve fitting of a family of signoidal dose-response curves using the four parameter logistic equation.) Results are shown in Table I. In Table 1 "N.D." means not determined; "c-pent" means cyclopentyl; "c-hex" means cyclohexyl; "i-Pr" means isopropyl; "Me" means methyl; and "OMe" means methoxy.

T1 sequence (P25105 whole entry): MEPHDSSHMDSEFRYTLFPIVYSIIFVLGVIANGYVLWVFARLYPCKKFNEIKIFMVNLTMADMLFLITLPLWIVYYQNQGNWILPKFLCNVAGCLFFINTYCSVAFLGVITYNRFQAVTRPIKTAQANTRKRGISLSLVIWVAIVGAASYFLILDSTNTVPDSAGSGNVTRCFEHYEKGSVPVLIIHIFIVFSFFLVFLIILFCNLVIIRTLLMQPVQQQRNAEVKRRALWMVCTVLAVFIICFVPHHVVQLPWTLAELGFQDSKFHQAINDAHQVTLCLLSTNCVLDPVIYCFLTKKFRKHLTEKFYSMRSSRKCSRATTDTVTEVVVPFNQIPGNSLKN

Row | inhibition at 10 µM [%] | SMILES
1 | 44 | COc1cc(Cn2cnc3ncncc32)ccc1C(=O)N(C(C)C)C1CCCCC1 [Example 2B, N-cyclohexyl-2-methoxy-N-(1-methylethyl)-4-(7H-purin-7-ylmethyl)benzamide]
2 | 40 | COc1cc(Cn2cnc3ncnc-3c2)ccc1C(=O)N(C(C)C)C1CCCCC1 [Example 7, N-cyclohexyl-2-methoxy-N-(1-methylethyl)-4-(1H-purin-1-ylmethyl)benzamide]
3 | 19 | CC(C)N(C(=O)c1ccc(Cn2cnc3ncnc-3c2)cc1)C1CCCCC1 [Example 8, N-cyclohexyl-N-(1-methylethyl)-4-(1H-purin-1-ylmethyl)benzamide]
